pIC50: −log10 of the molar value.
Columns and labels:
[1] = target: T1, AR-VP16 (Homo sapiens, UniProt P10275); assay: AR-VP16 DNA Binding Assay, antagonist mode (HepG2 cells, 0.1 nM R1881); format: cell-based
T1 sequence (P10275 560-920 limits assumed): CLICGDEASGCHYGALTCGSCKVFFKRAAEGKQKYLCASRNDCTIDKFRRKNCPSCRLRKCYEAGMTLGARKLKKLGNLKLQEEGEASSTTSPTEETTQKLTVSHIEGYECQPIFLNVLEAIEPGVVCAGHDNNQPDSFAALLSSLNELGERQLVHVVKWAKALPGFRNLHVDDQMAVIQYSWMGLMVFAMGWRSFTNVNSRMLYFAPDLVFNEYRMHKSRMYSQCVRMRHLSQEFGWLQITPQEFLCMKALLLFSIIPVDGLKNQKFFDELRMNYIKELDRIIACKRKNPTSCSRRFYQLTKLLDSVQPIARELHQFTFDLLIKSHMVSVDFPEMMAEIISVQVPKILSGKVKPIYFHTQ
Summary of the method: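 Transfected HepG2 cells expressing AR-VP16 received serially diluted compound in charcoal-stripped-serum RPMI the day after transfection, with 0.1 nM R1881 (final) added only for antagonist testing. After 48 h, cells were lysed for measurement.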

[2] = target: T1, AR-VP16; assay: AR-VP16 DNA Binding Assay, agonist mode (HepG2 cells); format: cell-based; conditions: Emax >20x DMSO control = agonist

SMILES	pIC50 [1]	ARVP16 DNA Binding Assay (Agonist mode): Agonist? [2]
N#Cc1ncc(N2C(=O)C3(CCC3)N(c3ccc(OCCCc4ccccc4)c(F)c3)C2=S)cc1C(F)(F)F [Compound 138, 5-(5-(3-Fluoro-4-(3-phenylpropoxy)phenyl)-8-oxo-6-thioxo-5,7-diazaspiro[3.4]octan-7-yl)-3-(trifluoromethyl)picolinonitrile]	< 6.00	No (Agonist defined as a compound whose Emax in the ARVP16 DNA Binding Assay (Agonist mode) is >20x DMSO control)
N#Cc1cccc(N2C(=S)N(c3cnc(C#N)c(C(F)(F)F)c3)C(=O)C23CCC3)c1 [Compound 11, 5-(5-(3-Cyanophenyl)-8-oxo-6-thioxo-5,7-diazaspiro[3.4]octan-7-yl)-3-(trifluoromethyl)picolinonitrile]	> 6.00	No (Agonist defined as a compound whose Emax in the ARVP16 DNA Binding Assay (Agonist mode) is >20x DMSO control)
Cc1cc(N2C(=S)N(c3cnc(C#N)c(C)c3)C(=O)C23CCC3)ccc1C(N)=O [Compound 233, 4-(7-(6-Cyano-5-methylpyridin-3-yl)-8-oxo-6-thioxo-5,7-diazaspiro[3.4]octan-5-yl)-2-methylbenzamide]	< 6.00	No (Agonist defined as a compound whose Emax in the ARVP16 DNA Binding Assay (Agonist mode) is >20x DMSO control)
N#Cc1ncc(N2C(=O)C3(CCC3)N(c3ccc(Oc4ccncc4)cc3)C2=S)cc1C(F)(F)F [Compound 40, 5-(8-Oxo-5-(4-(pyridin-4-yloxy)phenyl)-6-thioxo-5,7-diazaspiro[3.4]octan-7-yl)-3-(trifluoromethyl)picolinonitrile]	> 6.00	No (Agonist defined as a compound whose Emax in the ARVP16 DNA Binding Assay (Agonist mode) is >20x DMSO control)
N#Cc1ncc(N2C(=O)C3(CCC3)N(c3ccc(F)c(C(=O)NCCN4CCCC4)c3)C2=S)cc1C(F)(F)F [Compound 251, 5-(7-(6-Cyano-5-(trifluoromethyl)pyridin-3-yl)-8-oxo-6-thioxo-5,7-diazaspiro[3.4]octan-5-yl)-2-fluoro-N-(2-(pyrrolidin-1-yl)ethyl)benzamide]	< 6.00	No (Agonist defined as a compound whose Emax in the ARVP16 DNA Binding Assay (Agonist mode) is >20x DMSO control)
N#Cc1ncc(N2C(=O)C3(CCC3)N(c3ccc(OCCN4CCOCC4)c(F)c3)C2=S)cc1C(F)(F)F [Compound 143, 5-(5-(3-Fluoro-4-(2-morpholinoethoxy)phenyl)-8-oxo-6-thioxo-5,7-diazaspiro[3.4]octan-7-yl)-3-(trifluoromethyl)picolinonitrile]	> 6.00	Yes (Agonist defined as a compound whose Emax in the ARVP16 DNA Binding Assay (Agonist mode) is >20x DMSO control)
Cc1ccc(CNC(=O)c2ccc(N3C(=S)N(c4cnc(C#N)c(C(F)(F)F)c4)C(=O)C34CCC4)cc2F)o1 [Compound 291, 4-(7-(6-Cyano-5-(trifluoromethyl)pyridin-3-yl)-8-oxo-6-thioxo-5,7-diazaspiro[3.4]octan-5-yl)-2-fluoro-N-((5-methylfuran-2-yl)methyl)benzamide]	> 6.00	No (Agonist defined as a compound whose Emax in the ARVP16 DNA Binding Assay (Agonist mode) is >20x DMSO control)
Cc1cc(N2C(=O)C3(CCC3)N(c3ccc(OC4CCN(C)CC4)c(F)c3)C2=S)cnc1C#N [Compound 192, 5-(5-(3-Fluoro-4-((1-methylpiperidin-4-yl)oxy)phenyl)-8-oxo-6-thioxo-5,7-diazaspiro[3.4]octan-7-yl)-3-methylpicolinonitrile]	< 6.00	No (Agonist defined as a compound whose Emax in the ARVP16 DNA Binding Assay (Agonist mode) is >20x DMSO control)
Cc1cc(N2C(=O)C3(CCC3)N(c3ccc(C(=O)Nc4cccc(F)c4)c(F)c3)C2=S)cnc1C#N [Compound 298, 4-(7-(6-Cyano-5-methylpyridin-3-yl)-8-oxo-6-thioxo-5,7-diazaspiro[3.4]octan-5-yl)-2-fluoro-N-(3-fluorophenyl)benzamide]	> 6.00	No (Agonist defined as a compound whose Emax in the ARVP16 DNA Binding Assay (Agonist mode) is >20x DMSO control)
N#Cc1ncc(N2C(=O)C3(CCC3)N(c3ccc(C(=O)NCc4cnccn4)c(F)c3)C2=S)cc1C(F)(F)F [Compound 290, 4-(7-(6-Cyano-5-(trifluoromethyl)pyridin-3-yl)-8-oxo-6-thioxo-5,7-diazaspiro[3.4]octan-5-yl)-2-fluoro-N-(pyrazin-2-ylmethyl)benzamide]	> 6.00	No (Agonist defined as a compound whose Emax in the ARVP16 DNA Binding Assay (Agonist mode) is >20x DMSO control)
N#Cc1ccccc1N1C(=S)N(c2cnc(C#N)c(C(F)(F)F)c2)C(=O)C12CCC2 [Compound 10, 5-(5-(2-Cyanophenyl)-8-oxo-6-thioxo-5,7-diazaspiro[3.4]octan-7-yl)-3-(trifluoromethyl)picolinonitrile]	< 6.00	No (Agonist defined as a compound whose Emax in the ARVP16 DNA Binding Assay (Agonist mode) is >20x DMSO control)
NC(=O)c1ncc(N2C(=O)C3(CCC3)N(c3ccc(F)c(C(=O)O)c3)C2=S)cc1C(F)(F)F [Compound 229, 5-(7-(6-Carbamoyl-5-(trifluoromethyl)pyridin-3-yl)-8-oxo-6-thioxo-5,7-diazaspiro[3.4]octan-5-yl)-2-fluorobenzoic acid]	> 6.00	No (Agonist defined as a compound whose Emax in the ARVP16 DNA Binding Assay (Agonist mode) is >20x DMSO control)
Cc1ccc(-c2ccc(N3C(=S)N(c4cnc(C#N)c(C)c4)C(=O)C34CCC4)cc2)cn1 [Compound 96, 3-Methyl-5-(5-(4-(6-methylpyridin-3-yl)phenyl)-8-oxo-6-thioxo-5,7-diazaspiro[3.4]octan-7-yl)picolinonitrile]	> 6.00	No (Agonist defined as a compound whose Emax in the ARVP16 DNA Binding Assay (Agonist mode) is >20x DMSO control)
N#Cc1ncc(N2C(=O)C3(CCC3)N(c3ccc(OCCCC[S+]([O-])CCCC(F)(F)C(F)(F)F)c(F)c3)C2=S)cc1C(F)(F)F (stereo not shown) [Compound 152, 5-(5-(3-Fluoro-4-(4-((4,4,5,5,5-pentafluoropentyl)sulfinyl)butoxy)phenyl)-8-oxo-6-thioxo-5,7-diazaspiro[3.4]octan-7-yl)-3-(trifluoromethyl)picolinonitrile]	> 6.00	No (Agonist defined as a compound whose Emax in the ARVP16 DNA Binding Assay (Agonist mode) is >20x DMSO control)
CC(C)N1CCC(Oc2ccc(N3C(=S)N(c4cnc(C#N)c(C(F)(F)F)c4)C(=O)C34CCC4)cc2)CC1 [Compound 220, 5-(5-(4-((1-Isopropylpiperidin-4-yl)oxy)phenyl)-8-oxo-6-thioxo-5,7-diazaspiro[3.4]octan-7-yl)-3-(trifluoromethyl)picolinonitrile]	> 6.00	No (Agonist defined as a compound whose Emax in the ARVP16 DNA Binding Assay (Agonist mode) is >20x DMSO control)
N#Cc1ncc(N2C(=O)C3(CCC3)N(c3ccc(C(=O)N4CCCC4)c(F)c3)C2=S)cc1C(F)(F)F [Compound 270, 5-(5-(3-Fluoro-4-(pyrrolidine-1-carbonyl)phenyl)-8-oxo-6-thioxo-5,7-diazaspiro[3.4]octan-7-yl)-3-(trifluoromethyl)picolinonitrile]	< 6.00	No (Agonist defined as a compound whose Emax in the ARVP16 DNA Binding Assay (Agonist mode) is >20x DMSO control)
N#Cc1ncc(N2C(=O)C3(CCC3)N(c3ccc(OCC(=O)O)c(F)c3)C2=S)cc1C(F)(F)F [Compound 228, 2-(4-(7-(6-Cyano-5-(trifluoromethyl)pyridin-3-yl)-8-oxo-6-thioxo-5,7-diazaspiro[3.4]octan-5-yl)-2-fluorophenoxy)acetic acid]	< 6.00	No (Agonist defined as a compound whose Emax in the ARVP16 DNA Binding Assay (Agonist mode) is >20x DMSO control)
CN1CCN(CCOc2ccc(N3C(=S)N(c4cnc(C#N)c(C(F)(F)F)c4)C(=O)C34CCC4)cc2)CC1 [Compound 178, 5-(5-(4-(2-(4-Methylpiperazin-1-yl)ethoxy)phenyl)-8-oxo-6-thioxo-5,7-diazaspiro[3.4]octan-7-yl)-3-(trifluoromethyl)picolinonitrile]	> 6.00	No (Agonist defined as a compound whose Emax in the ARVP16 DNA Binding Assay (Agonist mode) is >20x DMSO control)
N#Cc1ncc(N2C(=O)C3(CCC3)N(c3ccc(OCCc4ncccn4)c(F)c3)C2=S)cc1C(F)(F)F [Compound 189, 5-(5-(3-Fluoro-4-(2-(pyrimidin-2-yl)ethoxy)phenyl)-8-oxo-6-thioxo-5,7-diazaspiro[3.4]octan-7-yl)-3-(trifluoromethyl)picolinonitrile]	> 6.00	No (Agonist defined as a compound whose Emax in the ARVP16 DNA Binding Assay (Agonist mode) is >20x DMSO control)
Cc1cc(N2C(=O)C3(CCC3)N(c3ccc(C(=O)NCc4cccs4)c(F)c3)C2=S)cnc1C#N [Compound 274, 4-(7-(6-Cyano-5-methylpyridin-3-yl)-8-oxo-6-thioxo-5,7-diazaspiro[3.4]octan-5-yl)-2-fluoro-N-(thiophen-2-ylmethyl)benzamide]	> 6.00	No (Agonist defined as a compound whose Emax in the ARVP16 DNA Binding Assay (Agonist mode) is >20x DMSO control)
